Measured values reported in patent publication EP3415523A1, “COMBINATION MEDICAMENT COMPRISING A PRODRUG AND INHALABLE CATALYST” (priority 2017, dated 2018).

Experiments:
mammalian cells = settings: in vitro test on mammalian cells; cited from earlier work
A549 cells [1] = assay: Extracellular prodrug activation, viability assay (PrestoBlue); type: cell-based; settings: 0.05 µM; for viability: 3 days
Procedure: A549 cells were seeded in 96-well plates at a cell concentration of 4,000 cells/well and incubated overnight before treatment. Each well was then replaced with 100 µL of fresh F-12K medium containing protected gemcitabine (0.05 µM) and DMSO (2% v/v), control wells were replaced with 100 µL of fresh F-12K medium and DMSO (2% v/v). Plates were incubated for 1 h before 10 µL of a platinum nanoparticles solution (50 ppm, 3 nm diameter) was added to each well and 10 µL of water was added to control wells. Plates were incubated for 1 h before placing them in a custom-designed gas chamber. Control plates were left untouched in the incubator. The chamber was placed in the incubator, connected to a gas bottle outside the incubator and to an outlet. The gas chamber was flushed for 1 min with hydrogen gas at 1 bar and closed. Plates were incubated 2 h in the gas chamber before placing them back in the incubator with the control plates. Control and treated plates were incubated for 72 h before PrestoBlue cell viability reagent (10% v/v) was added to each well and the plate incubated for 2 h. Fluorescence emission was measured using a microplate reader (Tecan; ex: 540 nm; em: 590 nm).
This could be due to a constitutively occurring slow reduction of the nitro group by the cells. […] Although this would require further investigations, it could be a consequence of the increased lipophilicity of the protected drug thereby conferring an increased uptake of the drug with respect to its deprotected counterpart.

A549 cells [2] = assay: EC50 experiments, dose response of cell viability (PrestoBlue); type: cell-based; settings: 3 days of treatment, prodrug versus its deprotected counterpart (gemcitabine)
Procedure: A549 cells were seeded in 96-well plates at a cell concentration of 2,000 cells/well and incubated overnight before treatment. Each well was then replaced with 100 µL of fresh F-12K medium containing protected gemcitabine (concentration ranging from 10^4 µM to 10^-4 µM) and DMSO (2% v/v), control wells were replaced with 100 µL of fresh F-12K medium and DMSO (2% v/v). Control and treated plates were incubated for 72 h before PrestoBlue cell viability reagent (10% v/v) was added to each well and the plate incubated for 2 h. Fluorescence emission was measured using a microplate reader (Tecan; ex: 540 nm; em: 590 nm).
Dose-response experiments were performed in order to determine the half maximal effective concentration (EC50) of both the drug as well as the prodrug.

Compound | mutagenic / genotoxic (mammalian cells) | viability (A549 cells [1]; both hydrogen and platinum present, compared with positive control gemcitabine) | viability (A549 cells [1]; the 3 conditions where either hydrogen and/or platinum is missing) | activity of the drug (A549 cells [1]; Fig. 7 and Fig. 8, 3 days, 5 ppm or 10 ppm platinum nanoparticles, four conditions with/without hydrogen and catalyst) | difference of EC50 values of drug and prodrug (A549 cells [2])
Cc1ccc(N)cc1 [p-toluidine] | neither mutagenic nor genotoxic | – | – | – | –
O=C(Nc1ccn([C@@H]2O[C@H](CO)[C@@H](O)C2(F)F)c(=O)n1)OCc1ccc([N+](=O)[O-])cc1 [gemcitabine prodrug, p-Nitrobenzyloxycarbonyl Gemcitabine] | – | slightly lower viability than the positive control with gemcitabine | A small decrease | only recovered if both the hydrogen and the platinum nanoparticles are present | about 5 orders of magnitude
